Test results as given in patent US20060014643A1, “Combinations of aryloxyphenoxypropionates and safeners and their use for increasing weed control” (BAYER CROPSCIENCE GMBH, priority 2002, published 2006).

Assays:
Format in all cases: in vivo
Setaria lutescens = assay: Post-emergence weed control in spring wheat (field trial); settings: visual scoring 4 weeks after treatment vs untreated, rate g a.i./ha: (A1) 112, (A3) 1680, (B1) 28, mixtures 112 + 28 and 1680 + 28, 300 l water/ha
Method: (§1) Spring wheat was grown outdoors on plots under natural outdoor conditions, and seeds of typical harmful plants were laid out. Treatment with a mixture of a (hetero)aryloxyphenoxypropionate herbicide and the safener mefenpyr-diethyl using standard formulations of the active ingredients at an application rate of 300 l water per hectare was carried out after the harmful plants had emerged and the spring wheat was in the growth stage between 3 and 5 leaves for the plants. The effect of the composition was assessed 4 weeks after treatment by scoring visually in comparison with untreated controls.

[1] = system: Triticum aestivum (spring wheat); assay: Phytotoxicity (crop damage) to spring wheat (field trial); settings: spring wheat at 3-5 leaves, visual scoring 4 weeks after treatment, rate g a.i./ha: (A1) 112, (A3) 1680, (B1) 28, mixtures 112 + 28 and 1680 + 28
Method: as §1

Alopecurus myosuroides = assay: Post-emergence weed control in winter wheat (field trial); settings: visual scoring 112 days after treatment vs untreated, rate g a.i./ha: (A5) 37.3, (B1) 10, (A5)+(B1) 37.3 + 10, 300 l water/ha
Method: (§2) Winter wheat was grown outdoors on plots under natural outdoor conditions, and seeds of typical harmful plants were laid out. […] The effect of the composition was assessed 112 days after treatment by scoring visually in comparison with untreated controls.

[2] = system: Triticum aestivum (winter wheat); assay: Phytotoxicity (crop damage) to winter wheat (field trial); settings: winter wheat at 3-5 leaves, visual scoring 112 days after treatment, rate g a.i./ha: (A5) 37.3, (B1) 10, (A5)+(B1) 37.3 + 10
Method: as §2

SMILES	Weed control (%) of SETLU (Setaria lutescens) [%]	Phytotox (%) of TRZAS [1] [%]	Weed control (%) of ALOMY (Alopecurus myosuroides) [%]	Phytotox (%) of TRZAW [2] [%]
CC(Oc1ccc(Oc2ccc(Cl)cc2Cl)cc1)C(=O)O (racemic) [(A3), (RS)-2-[4-(2,4-dichlorophenoxy)phenoxy]propionic acid]	45	12	–	–
C#CCOC(=O)[C@@H](C)Oc1ccc(Oc2ncc(Cl)cc2F)cc1 [(A1), prop-2-ynyl (R)-2-[4-(5-chloro-3-fluoropyridin-2-yloxy)phenoxy]propionate]	68	20	–	–
CCOC(=O)[C@@H](C)Oc1ccc(Oc2nc3ccc(Cl)cc3o2)cc1 [(A5), ethyl (R)-2-[4-(6-chloro-1,3-benzoxazol-2-yloxy)phenoxy]propionate]	–	–	69	10
CCOC(=O)C1=NN(c2ccc(Cl)cc2Cl)C(C)(C(=O)OCC)C1 (stereo not shown) [(B1), ethyl 1-(2,4-dichlorophenyl)-5-(ethoxycarbonyl)-5-methyl-2-pyrazoline-3-carboxylate]	0	0	0	0
